Data published in BindingDB's records for doi:10.1016/S0960-894X(97)00091-7 (1997).
Where a SMILES comes first, the peptide text is derived from it. The star is where a group is joined. Cbz = O=C(OCc1ccccc1)*

Key:
[1] = target: Chymotrypsinogen A (Bos taurus) (UniProt P00766); experiment: The compound was tested for the inhibition of alpha-Chymotrypsin, activity expressed as IC50
[2] = target: Chymotrypsinogen A (Bos taurus) (UniProt P00766); experiment: as above; remark: listed apart in the source

IC50 [1]: 950 nM | Ki [2]: 2200 nM
SMILES: C[C@H](NC(=O)OCc1ccccc1)C(=O)N[C@@H](C)C(=O)N[C@H](C=O)Cc1ccccc1 [{1-[1-(1-Benzyl-2-oxo-ethylcarbamoyl)-ethylcarbamoyl]-ethyl}-carbamic acid benzyl ester] (Cbz-Ala-Ala-Phe-aldehyde)
